Source: ChEMBL document CHEMBL1201861, “Genomics of Drug Sensitity in Cancer screening data, Wellcome Trust Sanger Institute”
pIC50: −log10 of the molar value.

What was measured:
Assay in all cases: cells
COLO-824 = format: functional, cell-based, Homo sapiens; conditions: Homo sapiens, COLO-824
Description: SANGER: Inhibition of human COLO-824 cell growth in a cell viability assay.

COR-L88 = format: functional, cell-based, Homo sapiens; conditions: Homo sapiens, COR-L88;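 also: growth inhibition of COR-L88 cells, read out with a cell viability assay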
Description: SANGER: Inhibition of human COR-L88 cell growth in a cell viability assay.

CTV-1 = format: functional, cell-based, Homo sapiens; conditions: Homo sapiens, CTV-1;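 also: growth inhibition of the cell line, read out with a cell viability assay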
Description: SANGER: Inhibition of human CTV-1 cell growth in a cell viability assay.

Calu-6 = format: functional, cell-based, Homo sapiens; conditions: Homo sapiens, Calu-6;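 also: growth of human Calu-6 cells, read out by a cell viability assay, IC50 marking inhibition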
Description: SANGER: Inhibition of human Calu-6 cell growth in a cell viability assay.

D-247MG = format: functional, cell-based; conditions: Homo sapiens
Description: SANGER: Inhibition of human D-247MG cell growth in a cell viability assay.

D283 Med = format: functional, cell-based, Homo sapiens; conditions: Homo sapiens, D283 Med
Description: SANGER: Inhibition of human D-283MED cell growth in a cell viability assay.

D-502MG = format: functional, cell-based, Homo sapiens; conditions: Homo sapiens, D-502MG
Description: SANGER: Inhibition of human D-502MG cell growth in a cell viability assay.

EKVX = format: functional, cell-based, Homo sapiens; conditions: Homo sapiens, EKVX;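 also: growth inhibition of human EKVX cells, read out with a cell viability assay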
Description: SANGER: Inhibition of human EKVX cell growth in a cell viability assay.

ETK-1 = format: functional, cell-based, Homo sapiens; conditions: Homo sapiens, ETK-1;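 also: growth inhibition of human ETK-1 cells, read out with a cell viability assay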
Description: SANGER: Inhibition of human ETK-1 cell growth in a cell viability assay.

EW-11 = format: functional, cell-based, Homo sapiens; conditions: Homo sapiens, EW-11;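 also: growth inhibition of human EW-11 cells, measured with a cell viability assay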
Description: SANGER: Inhibition of human EW-11 cell growth in a cell viability assay.

EW-18 = format: functional, cell-based, Homo sapiens; conditions: Homo sapiens, EW-18; read-out: IC50;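 also: growth inhibition of EW-18 cells, read out by a cell viability assay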
Description: SANGER: Inhibition of human EW-18 cell growth in a cell viability assay.

GR-ST = format: functional, cell-based, Homo sapiens; conditions: Homo sapiens, GR-ST
Description: SANGER: Inhibition of human GR-ST cell growth in a cell viability assay.

HCE-T = format: functional, cell-based, Homo sapiens; conditions: Homo sapiens, HCE-T;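 also: cell viability assay read-out, reporting inhibition of HCE-T cell growth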
Description: SANGER: Inhibition of human HCE-T cell growth in a cell viability assay.

IA-LM = format: functional, cell-based; conditions: Homo sapiens;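 also: cell viability assay measuring growth inhibition of human IA-LM cells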
Description: SANGER: Inhibition of human IA-LM cell growth in a cell viability assay.

KARPAS-45 = format: functional, cell-based, Homo sapiens; conditions: Homo sapiens, KARPAS-45;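 also: inhibition of cell line growth, read out through a viability assay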
Description: SANGER: Inhibition of human KARPAS-45 cell growth in a cell viability assay.

KM12 = format: functional, cell-based, Homo sapiens; conditions: Homo sapiens, KM12;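 also: KM12 cell growth inhibition, read out with a cell viability assay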
Description: SANGER: Inhibition of human KM12 cell growth in a cell viability assay.

KNS-81-FD = format: functional, cell-based, Homo sapiens; conditions: Homo sapiens, KNS-81-FD;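 also: growth inhibition of KNS-81-FD cells, read out with a cell viability assay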
Description: SANGER: Inhibition of human KNS-81-FD cell growth in a cell viability assay.

KY821 = format: functional, cell-based, Homo sapiens; conditions: Homo sapiens, KY821;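 also: growth inhibition of human KY821 cells, read out by a cell viability assay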
Description: SANGER: Inhibition of human KY821 cell growth in a cell viability assay.

LB1047-RCC = format: functional, cell-based, Homo sapiens; conditions: Homo sapiens, LB1047-RCC;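 also: inhibition of cell growth, determined with a cell viability assay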
Description: SANGER: Inhibition of human LB1047-RCC cell growth in a cell viability assay.

LB831-BLC = format: functional, cell-based, Homo sapiens; conditions: Homo sapiens, LB831-BLC;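 also: growth inhibition of LB831-BLC cells, read out with a cell viability assay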
Description: SANGER: Inhibition of human LB831-BLC cell growth in a cell viability assay.

LS-1034 = format: functional, cell-based, Homo sapiens; conditions: Homo sapiens, LS-1034
Description: SANGER: Inhibition of human LS-1034 cell growth in a cell viability assay.

LS-411N = format: functional, cell-based, Homo sapiens; conditions: Homo sapiens, LS-411N
MFM-223 = format: functional, cell-based, Homo sapiens; conditions: Homo sapiens, MFM-223
Description: SANGER: Inhibition of human MFM-223 cell growth in a cell viability assay.

MHH-PREB-1 = format: functional, cell-based, Homo sapiens; conditions: Homo sapiens, MHH-PREB-1;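 also: cell viability assay measuring inhibition of proliferation of human MHH-PREB-1 cells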
Description: SANGER: Inhibition of human MHH-PREB-1 cell growth in a cell viability assay.

MLMA = format: functional, cell-based, Homo sapiens; conditions: Homo sapiens, MLMA;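 also: growth inhibition of MLMA cells (human), determined through a cell viability readout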
Description: SANGER: Inhibition of human MLMA cell growth in a cell viability assay.

MPP-89 = format: functional, cell-based, Homo sapiens; conditions: Homo sapiens, MPP-89;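 also: growth inhibition of human MPP-89 cells, read out with a cell viability assay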
Description: SANGER: Inhibition of human MPP-89 cell growth in a cell viability assay.

MS-1 = format: functional, cell-based, Homo sapiens; conditions: Homo sapiens, MS-1;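 also: growth inhibition of MS-1 cells, read out by cell viability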
Description: SANGER: Inhibition of human MS-1 cell growth in a cell viability assay.

NCI-H1304 = format: functional, cell-based, Homo sapiens; conditions: Homo sapiens, NCI-H1304;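 also: growth inhibition of the cancer cell line, measured in a cell viability assay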
Description: SANGER: Inhibition of human NCI-H1304 cell growth in a cell viability assay.

NCI-H1770 = format: functional, cell-based, Homo sapiens; conditions: Homo sapiens, NCI-H1770;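 also: growth inhibition of NCI-H1770 cells determined with a viability readout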
Description: SANGER: Inhibition of human NCI-H1770 cell growth in a cell viability assay.

NCI-H446 = format: functional, cell-based, Homo sapiens; conditions: Homo sapiens, NCI-H446;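 also: growth inhibition of NCI-H446 cells determined by a cell viability assay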
Description: SANGER: Inhibition of human NCI-H446 cell growth in a cell viability assay.

NCI-H526 = format: functional, cell-based, Homo sapiens; conditions: Homo sapiens, NCI-H526;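 also: growth inhibition of the human NCI-H526 cell line, measured by a cell viability assay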
Description: SANGER: Inhibition of human NCI-H526 cell growth in a cell viability assay.

P30-OHK = format: functional, cell-based, Homo sapiens; conditions: Homo sapiens, P30-OHK;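 also: growth inhibition of the P30-OHK cell line, read out with a cell viability assay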
Description: SANGER: Inhibition of human P30-OHK cell growth in a cell viability assay.

RXF 393 = format: functional, cell-based, Homo sapiens; conditions: Homo sapiens, RXF 393;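 also: growth inhibition of human RXF 393 cells, read out with a cell viability assay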
Description: SANGER: Inhibition of human RXF393 cell growth in a cell viability assay.

SF-268 = format: functional, cell-based, Homo sapiens; conditions: Homo sapiens, SF-268;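 also: growth inhibition of SF-268 cells determined with a cell viability assay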
Description: SANGER: Inhibition of human SF268 cell growth in a cell viability assay.

SK-N-DZ = format: functional, cell-based, Homo sapiens; conditions: Homo sapiens, SK-N-DZ; read-out: IC50;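 also: growth inhibition of the cancer cell line, read out through a viability assay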
Description: SANGER: Inhibition of human SK-N-DZ cell growth in a cell viability assay.

SNB-75 = format: functional, cell-based, Homo sapiens; conditions: Homo sapiens, SNB-75;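 also: cell viability assay measuring growth inhibition of human SNB-75 cells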
Description: SANGER: Inhibition of human SNB75 cell growth in a cell viability assay.

A101D = format: functional, cell-based, Homo sapiens; conditions: Homo sapiens, A101D;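 also: growth inhibition of the cell line, measured with a viability assay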
Description: SANGER: Inhibition of human A101D cell growth in a cell viability assay.

A4-Fuk = format: functional, cell-based, Homo sapiens; conditions: Homo sapiens, A4-Fuk;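 also: growth inhibition of A4-Fuk cells, read out by a cell viability assay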
Description: SANGER: Inhibition of human A4-Fuk cell growth in a cell viability assay.

ACN = format: functional, cell-based, Homo sapiens; conditions: Homo sapiens, ACN;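 also: growth inhibition of the human ACN cell line, read out via cell viability testing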
Description: SANGER: Inhibition of human ACN cell growth in a cell viability assay.

AM-38 = format: functional, cell-based, Homo sapiens; conditions: Homo sapiens, AM-38;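 also: growth inhibition of AM-38 cells of human origin, read out by a cell viability assay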
Description: SANGER: Inhibition of human AM-38 cell growth in a cell viability assay.

BB49-HNC = format: functional, cell-based, Homo sapiens; conditions: Homo sapiens, BB49-HNC;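 also: cell viability assay read-out, reported as inhibition of BB49-HNC cell growth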
Description: SANGER: Inhibition of human BB49-HNC cell growth in a cell viability assay.

Becker = format: functional, cell-based, Homo sapiens; conditions: Homo sapiens, Becker;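 also: growth inhibition of Becker cells, read out with a cell viability assay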
Description: SANGER: Inhibition of human Becker cell growth in a cell viability assay.

TE-5 = format: functional, cell-based, Homo sapiens; conditions: Homo sapiens, TE-5;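 also: inhibition of cell growth, read out by a cell viability assay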
Description: SANGER: Inhibition of human TE-5 cell growth in a cell viability assay.

TE-6 = format: functional, cell-based, Homo sapiens; conditions: Homo sapiens, TE-6;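 also: growth inhibition of TE-6 cells, read out with a cell viability assay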
Description: SANGER: Inhibition of human TE-6 cell growth in a cell viability assay.

TGBC1TKB = format: functional, cell-based, Homo sapiens; conditions: Homo sapiens, TGBC1TKB;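 also: growth inhibition of TGBC1TKB cells, read out by a cell viability assay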
Description: SANGER: Inhibition of human TGBC1TKB cell growth in a cell viability assay.

VA-ES-BJ = format: functional, cell-based, Homo sapiens; conditions: Homo sapiens, VA-ES-BJ;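 also: growth inhibition of the VA-ES-BJ cell line, read out by a cell viability assay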
Description: SANGER: Inhibition of human VA-ES-BJ cell growth in a cell viability assay.

COLO-668 = format: functional, cell-based, Homo sapiens; conditions: Homo sapiens, COLO-668
Description: SANGER: Inhibition of human COLO-668 cell growth in a cell viability assay.

C[C@@H](Oc1cc(-c2cnn(C3CCNCC3)c2)cnc1N)c1c(Cl)ccc(F)c1Cl [CRIZOTINIB]
pIC50 (COLO-824): < 5.70
pIC50 (COR-L88): < 5.70
pIC50 (CTV-1): 6.22
pIC50 (Calu-6): < 5.70
pIC50 (D-247MG): < 5.70
pIC50 (D283 Med): < 5.70
pIC50 (D-502MG): < 5.70
pIC50 (EKVX): < 5.70
pIC50 (ETK-1): < 5.70
pIC50 (EW-11): < 5.70
pIC50 (EW-18): < 5.70
pIC50 (GR-ST): < 5.70
pIC50 (HCE-T): < 5.70
pIC50 (IA-LM): < 5.70
pIC50 (KARPAS-45): < 5.70
pIC50 (KM12): 6.15
pIC50 (KNS-81-FD): < 5.70
pIC50 (KY821): < 5.70
pIC50 (LB1047-RCC): < 5.70
pIC50 (LB831-BLC): < 5.70
pIC50 (LS-1034): < 5.70
pIC50 (LS-411N): < 5.70
pIC50 (MFM-223): < 5.70
pIC50 (MHH-PREB-1): < 5.70
pIC50 (MLMA): < 5.70
pIC50 (MPP-89): < 5.70
pIC50 (MS-1): < 5.70
pIC50 (NCI-H1304): < 5.70
pIC50 (NCI-H1770): < 5.70
pIC50 (NCI-H446): < 5.70
pIC50 (NCI-H526): < 5.70
pIC50 (P30-OHK): < 5.70
pIC50 (RXF 393): < 5.70
pIC50 (SF-268): < 5.70
pIC50 (SK-N-DZ): < 5.70
pIC50 (SNB-75): < 5.70
pIC50 (A101D): < 5.70
pIC50 (A4-Fuk): < 5.70
pIC50 (ACN): < 5.70
pIC50 (AM-38): < 5.70
pIC50 (BB49-HNC): < 5.70
pIC50 (Becker): < 5.70
pIC50 (TE-5): < 5.70
pIC50 (TE-6): < 5.70
pIC50 (TGBC1TKB): < 5.70
pIC50 (VA-ES-BJ): < 5.70
pIC50 (COLO-668): < 5.70

NC(=O)c1cccc(-c2cc(Nc3ccc(OC(F)(F)F)cc3)ncn2)c1
pIC50 (COLO-824): < 5.89
pIC50 (COR-L88): < 5.89
pIC50 (CTV-1): < 5.89
pIC50 (Calu-6): < 5.89
pIC50 (D-247MG): < 5.89
pIC50 (D283 Med): < 5.89
pIC50 (D-502MG): < 5.89
pIC50 (EKVX): < 5.89
pIC50 (ETK-1): < 5.89
pIC50 (EW-11): < 5.89
pIC50 (EW-18): < 5.89
pIC50 (GR-ST): < 5.89
pIC50 (HCE-T): < 5.89
pIC50 (IA-LM): < 5.89
pIC50 (KARPAS-45): < 5.89
pIC50 (KM12): < 5.89
pIC50 (KNS-81-FD): < 5.89
pIC50 (KY821): < 5.89
pIC50 (LB1047-RCC): < 5.89
pIC50 (LB831-BLC): < 5.89
pIC50 (LS-1034): < 5.89
pIC50 (LS-411N): < 5.89
pIC50 (MFM-223): < 5.89
pIC50 (MHH-PREB-1): < 5.89
pIC50 (MLMA): < 5.89
pIC50 (MPP-89): < 5.89
pIC50 (MS-1): < 5.89
pIC50 (NCI-H1304): < 5.89
pIC50 (NCI-H1770): < 5.89
pIC50 (NCI-H446): < 5.89
pIC50 (NCI-H526): < 5.89
pIC50 (P30-OHK): < 5.89
pIC50 (RXF 393): < 5.89
pIC50 (SF-268): < 5.89
pIC50 (SK-N-DZ): < 5.89
pIC50 (SNB-75): < 5.89
pIC50 (A101D): < 5.89
pIC50 (A4-Fuk): < 5.89
pIC50 (ACN): < 5.89
pIC50 (AM-38): < 5.89
pIC50 (BB49-HNC): < 5.89
pIC50 (Becker): < 5.89
pIC50 (TE-5): < 5.89
pIC50 (TE-6): < 5.89
pIC50 (TGBC1TKB): < 5.89
pIC50 (VA-ES-BJ): < 5.89
pIC50 (COLO-668): < 5.89

C=CC(=O)N1CCCC(Nc2nc(Nc3ccc(N(C)C(=O)CC)cc3)nc3[nH]cnc23)C1 (stereo unspecified)
pIC50 (COLO-824): < 4.99
pIC50 (COR-L88): < 4.99
pIC50 (CTV-1): < 4.99
pIC50 (Calu-6): < 4.99
pIC50 (D-247MG): < 4.99
pIC50 (D283 Med): < 4.99
pIC50 (D-502MG): < 4.99
pIC50 (EKVX): < 4.99
pIC50 (ETK-1): < 4.99
pIC50 (EW-11): < 4.99
pIC50 (EW-18): < 4.99
pIC50 (GR-ST): < 4.99
pIC50 (HCE-T): < 4.99
pIC50 (IA-LM): < 4.99
pIC50 (KARPAS-45): < 4.99
pIC50 (KM12): < 4.99
pIC50 (KNS-81-FD): < 4.99
pIC50 (KY821): < 4.99
pIC50 (LB1047-RCC): < 4.99
pIC50 (LB831-BLC): 5.53
pIC50 (LS-1034): < 4.99
pIC50 (LS-411N): < 4.99
pIC50 (MFM-223): < 4.99
pIC50 (MHH-PREB-1): < 4.99
pIC50 (MLMA): < 4.99
pIC50 (MPP-89): < 4.99
pIC50 (MS-1): < 4.99
pIC50 (NCI-H1304): < 4.99
pIC50 (NCI-H1770): < 4.99
pIC50 (NCI-H446): < 4.99
pIC50 (NCI-H526): < 4.99
pIC50 (P30-OHK): < 4.99
pIC50 (RXF 393): < 4.99
pIC50 (SF-268): < 4.99
pIC50 (SK-N-DZ): < 4.99
pIC50 (SNB-75): < 4.99
pIC50 (A101D): < 4.99
pIC50 (A4-Fuk): < 4.99
pIC50 (ACN): < 4.99
pIC50 (AM-38): < 4.99
pIC50 (BB49-HNC): < 4.99
pIC50 (Becker): < 4.99
pIC50 (TE-5): < 4.99
pIC50 (TE-6): < 4.99
pIC50 (TGBC1TKB): < 4.99
pIC50 (VA-ES-BJ): < 4.99
pIC50 (COLO-668): < 4.99
